Measured values as given in PubChem BioAssay AID256 (DTP/NCI, 2004).
“And” between values parts separate entries of the source, which are not always exact repeats. Identical values can stand only once. Toxic doses and inconclusive results are not listed. Rule for the calls: active = survival T/C of 150% or more; inactive = T/C below 125% in these data.

Tested on: CD2F1 mice, L1210 leukemia ip, survival T/C
Assay: NCI In Vivo Anticancer Drug Screen. Data for tumor model L1210 Leukemia (intraperitoneal) in CD2F1 (CDF1) mice
Conditions: higher = longer survival
Procedure, shortened: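 Compound-dosed mice with transplantable tumor versus matched vehicle controls; endpoint ratio T/C reported.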

[1] = endpoint: mean survival time, dose: 100.0 mg/kg/injection, schedule: Q01DX001 (ip), vehicle: saline with Tween-80
[2] = endpoint: mean survival time, dose: 200.0 mg/kg/injection, schedule: Q01DX009 (ip), vehicle: saline with Tween-80

Measured: T/C

CC1OC(OC2C(O)CC(OC3C(O)CC(OC4CCC5(C)C(CCC6C5CCC5(C)C(C7=CC(=O)OC7)CCC65O)C4)OC3C)OC2C)CC(O)C1O (stereo not given)
inactive: endpoint: median survival time, dose: 0.5 mg/kg/injection, schedule: Q01DX005 (iv), vehicle: water 109 % of control | endpoint: median survival time, dose: 0.5 mg/kg/injection, schedule: Q01DX010 (ip), vehicle: water 106 % of control | endpoint: median survival time, dose: 1.0 mg/kg/injection, schedule: Q01DX005 (iv), vehicle: water 108 % of control | endpoint: median survival time, dose: 1.0 mg/kg/injection, schedule: Q01DX010 (ip), vehicle: water 108 % of control | endpoint: median survival time, dose: 1.0 mg/kg/injection, schedule: Q04DX003 (ip), vehicle: water 101 % of control | endpoint: median survival time, dose: 1.0 mg/kg/injection, schedule: Q04DX003 (iv), vehicle: water 111 % of control | endpoint: median survival time, dose: 2.0 mg/kg/injection, schedule: Q01DX005 (iv), vehicle: water 97 % of control | endpoint: median survival time, dose: 2.0 mg/kg/injection, schedule: Q01DX010 (ip), vehicle: water 109 % of control | endpoint: median survival time, dose: 2.0 mg/kg/injection, schedule: Q04DX003 (ip), vehicle: water 101 % of control | endpoint: median survival time, dose: 2.0 mg/kg/injection, schedule: Q04DX003 (iv), vehicle: water 109 % of control | endpoint: median survival time, dose: 4.0 mg/kg/injection, schedule: Q01DX005 (iv), vehicle: water 108 % of control | endpoint: median survival time, dose: 4.0 mg/kg/injection, schedule: Q01DX010 (ip), vehicle: water 108 % of control | endpoint: median survival time, dose: 4.0 mg/kg/injection, schedule: Q04DX003 (ip), vehicle: water 107 % of control | endpoint: median survival time, dose: 4.0 mg/kg/injection, schedule: Q04DX003 (iv), vehicle: water 110 % of control | endpoint: median survival time, dose: 8.0 mg/kg/injection, schedule: Q01DX005 (iv), vehicle: water 90 % of control | endpoint: median survival time, dose: 8.0 mg/kg/injection, schedule: Q04DX003 (ip), vehicle: water 98 % of control | endpoint: median survival time, dose: 8.0 mg/kg/injection, schedule: Q04DX003 (iv), vehicle: water 110 % of control | endpoint: median survival time, dose: 16.0 mg/kg/injection, schedule: Q04DX003 (ip), vehicle: water 101 % of control | endpoint: median survival time, dose: 16.0 mg/kg/injection, schedule: Q04DX003 (iv), vehicle: water 76 % of control

CC1COCC(C)N1N=Nc1ccccc1-c1nc(N)c2ccccc2n1 (stereo not given)
inactive: endpoint: mean survival time, dose: 100.0 mg/kg/injection, schedule: Q04DX002 (ip), vehicle: Klucel (hydroxypropylcellulose) (HPC) 88 % of control | endpoint: mean survival time, dose: 200.0 mg/kg/injection, schedule: Q04DX002 (ip), vehicle: Klucel (hydroxypropylcellulose) (HPC) 92 % of control | endpoint: mean survival time, dose: 400.0 mg/kg/injection, schedule: Q04DX002 (ip), vehicle: Klucel (hydroxypropylcellulose) (HPC) 98 % of control

O=C(COc1cccc(Cl)c1)Nc1ccc(S(=O)(=O)F)cc1
inactive: [1] 97 % of control | endpoint: mean survival time, dose: 200.0 mg/kg/injection, schedule: Q01DX001 (ip), vehicle: saline with Tween-80 95 % of control | endpoint: mean survival time, dose: 400.0 mg/kg/injection, schedule: Q01DX001 (ip), vehicle: saline with Tween-80 91 % of control

CC1(C)OC2COC(OCc3ccccc3)C(OCc3ccccc3)C2O1 (stereo not given)
inactive: endpoint: mean survival time, dose: 100.0 mg/kg/injection, schedule: Q01DX009 (ip), vehicle: saline with Tween-80 104 % of control | [2] 101 % of control | endpoint: mean survival time, dose: 400.0 mg/kg/injection, schedule: Q01DX009 (ip), vehicle: saline with Tween-80 96 % of control

COc1cccc(C(O)c2ccncc2)c1OC (stereo not given)
inactive: endpoint: mean survival time, dose: 25.0 mg/kg/injection, schedule: Q01DX009 (ip), vehicle: water 96 % of control | endpoint: mean survival time, dose: 50.0 mg/kg/injection, schedule: Q01DX009 (ip), vehicle: water 105 % of control | endpoint: mean survival time, dose: 100.0 mg/kg/injection, schedule: Q01DX009 (ip), vehicle: water 98 % of control | endpoint: mean survival time, dose: 200.0 mg/kg/injection, schedule: Q01DX009 (ip), vehicle: water 93 % of control | endpoint: mean survival time, dose: 400.0 mg/kg/injection, schedule: Q01DX009 (ip), vehicle: water 91 % of control

O=[N+]([O-])c1cc(S(=O)(=O)F)ccc1Cl
inactive: endpoint: mean survival time, dose: 12.5 mg/kg/injection, schedule: Q01DX009 (ip), vehicle: saline with Tween-80 100 % of control | endpoint: mean survival time, dose: 25.0 mg/kg/injection, schedule: Q01DX009 (ip), vehicle: saline with Tween-80 94 % of control | endpoint: mean survival time, dose: 50.0 mg/kg/injection, schedule: Q01DX009 (ip), vehicle: saline with Tween-80 97 % of control and 103 % of control

CCOC1(OCC)C2C=CC1C(C#N)(C#N)C2(C#N)C#N
inactive: endpoint: mean survival time, dose: 75.0 mg/kg/injection, schedule: Q01DX001 (ip), vehicle: saline 103 % of control | endpoint: mean survival time, dose: 150.0 mg/kg/injection, schedule: Q01DX001 (ip), vehicle: saline 104 % of control

CCN(CC)CCNCCCNCCN(CC)CC
inactive: endpoint: mean survival time, dose: 100.0 mg/kg/injection, schedule: Q01DX009 (ip), vehicle: saline 92 % of control | endpoint: mean survival time, dose: 100.0 mg/kg/injection, schedule: Q04DX003 (ip), vehicle: saline with Tween-80 98 % of control | endpoint: mean survival time, dose: 200.0 mg/kg/injection, schedule: Q01DX009 (ip), vehicle: saline 92 % of control | endpoint: mean survival time, dose: 200.0 mg/kg/injection, schedule: Q04DX003 (ip), vehicle: saline with Tween-80 95 % of control | endpoint: mean survival time, dose: 400.0 mg/kg/injection, schedule: Q01DX009 (ip), vehicle: saline 87 % of control | endpoint: mean survival time, dose: 400.0 mg/kg/injection, schedule: Q04DX003 (ip), vehicle: saline with Tween-80 95 % of control

CC(=O)CCC(=O)C1SCCS1
inactive: endpoint: mean survival time, dose: 100.0 mg/kg/injection, schedule: Q04DX002 (ip), vehicle: saline with Tween-80 101 % of control | endpoint: mean survival time, dose: 200.0 mg/kg/injection, schedule: Q04DX002 (ip), vehicle: saline with Tween-80 97 % of control | endpoint: mean survival time, dose: 400.0 mg/kg/injection, schedule: Q04DX002 (ip), vehicle: saline with Tween-80 101 % of control

CC(C)CCCC(C)C1C(O)CC2C3CCC4CC(O)CCC4(C)C3CCC21C (stereo not given)
inactive: endpoint: mean survival time, dose: 25.0 mg/kg/injection, schedule: Q01DX001 (ip), vehicle: saline with Tween-80 103 % of control | endpoint: mean survival time, dose: 50.0 mg/kg/injection, schedule: Q01DX001 (ip), vehicle: saline with Tween-80 95 % of control | [1] 97 % of control

S=c1nc[nH]c2c1ncn2CN1CCCCC1
inactive: [2] 116 % of control

Cc1ccc(CNc2ccccc2)cc1
inactive: endpoint: mean survival time, dose: 12.5 mg/kg/injection, schedule: Q01DX009 (ip), vehicle: other 103 % of control | endpoint: mean survival time, dose: 25.0 mg/kg/injection, schedule: Q01DX009 (ip), vehicle: other 108 % of control | endpoint: mean survival time, dose: 50.0 mg/kg/injection, schedule: Q01DX009 (ip), vehicle: other 96 % of control | endpoint: mean survival time, dose: 100.0 mg/kg/injection, schedule: Q04DX003 (ip), vehicle: other 97 % of control | endpoint: mean survival time, dose: 200.0 mg/kg/injection, schedule: Q04DX003 (ip), vehicle: other 89 % of control and 102 % of control | endpoint: mean survival time, dose: 400.0 mg/kg/injection, schedule: Q04DX003 (ip), vehicle: other 88 % of control and 96 % of control

CSc1cc(C)n2nnnc2n1
inactive: endpoint: mean survival time, dose: 100.0 mg/kg/injection, schedule: Q01DX001 (ip), vehicle: saline 101 % of control

CCCCCCCCn1nnnc1N
inactive: endpoint: mean survival time, dose: 12.5 mg/kg/injection, schedule: Q01DX001 (ip), vehicle: Klucel (hydroxypropylcellulose) (HPC) 112 % of control | endpoint: mean survival time, dose: 25.0 mg/kg/injection, schedule: Q01DX001 (ip), vehicle: Klucel (hydroxypropylcellulose) (HPC) 97 % of control | endpoint: mean survival time, dose: 50.0 mg/kg/injection, schedule: Q01DX001 (ip), vehicle: Klucel (hydroxypropylcellulose) (HPC) 104 % of control

CCC1(O)CC2CN(CCc3c([nH]c4ccccc34)C(C(=O)OC)(c3cc4c(cc3OC)N(C)C3C(O)(C(=O)NCCSSCCNC(=O)C5(O)C(O)C6(CC)C=CCN7CCC8(c9cc(C%10(C(=O)OC)CC%11CN(CCc%12c%10[nH]c%10ccccc%12%10)CC(O)(CC)C%11)c(OC)cc9N(C)C58)C76)C(O)C5(CC)C=CCN6CCC43C65)C2)C1 (stereo not given)
inactive: endpoint: median survival time, dose: 1.08 mg/kg/injection, schedule: Q01DX009 (ip), vehicle: suspension in saline 111 % of control

CCCCCCCC/C=C/CCCCCCCC(=O)NCCCCCCNC(=O)CCCCCCC/C=C/CCCCCCCC
inactive: endpoint: mean survival time, dose: 100.0 mg/kg/injection, schedule: Q01DX001 (ip), vehicle: other 94 % of control | endpoint: mean survival time, dose: 200.0 mg/kg/injection, schedule: Q01DX001 (ip), vehicle: other 97 % of control | endpoint: mean survival time, dose: 400.0 mg/kg/injection, schedule: Q01DX001 (ip), vehicle: other 102 % of control
